Laboratory results published in PMC5556109, “A combinatorial approach for the discovery of cytochrome P450 2D6 inhibitors from nature” (Scientific Reports, 2017).
Like-named read-outs stand apart in the source and are kept apart here.

Legend:
[1] = test system: P450-Glo detection reaction (unspecific esterase and modified firefly-luciferase); assay: P450-Glo detection reaction control (luciferin-EGE, esterase, luciferase, test compound, no CYP2D6); details: for P450-Glo Detection Reaction MEAN Diff. (inhibition of the detection reaction) / P450-Glo Detection Reaction MEAN (total luminescence): 50 µM test compound; for P450-Glo Detection Reaction MEAN Diff. (inhibition of the detection reaction): difference to DMSO 1% control; for P450-Glo Detection Reaction MEAN (total luminescence): no CYP2D6, DMSO control = 100; for p < 0.05 (significant inhibition of the P450-Glo detection reaction): 50 µM, one-way ANOVA, Dunnett's test vs DMSO control
Excerpt: This detection-reagent consists of i) a detergent that stops the CYP2D6 enzyme reaction, ii) an unspecific esterase that continuously releases luciferin and iii) a modified firefly-luciferase, thus a stable luminogenic signal is generated, which can be quantified by a luminometer (Fig. 1). The detection reaction is incorporated in the P450-Glo CYP2D6 inhibition assay. However, we implemented additional controls for unspecific interactions of the test compounds with the detection reaction. For this purpose, the previously established luminescence quenching control reaction reported by Modarai et al.[9] was adapted to our requirements with modifications for the use of larger sample volumes. In addition, Modarai et al. converted ME-luciferin-EGE to luciferin in the absence of a test compound and then evaluated the inhibition of the luciferase reaction.We conducted the control step by using pure luciferin-EGE, esterase, luciferase and a test compound in the absence of CYP2D6 (Supplementary Table S4).
The quantification of the P450-Glo detection reaction was performed by subtracting the background values prior to calculating the percentage of total luminescence (% TL) based on the total luminescence obtained from the solvent control (set to 100%).
We then added 12.5 µl 4× reaction mixture (5 µl 1.5 mM luciferin-EGE stock solution, 500 µl 1 M KPO4 buffer and 745 µl luciferase free water) to the wells. Finally, 25 µl of the 2× NADPH regeneration system was added. In order to initiate the detection reaction, 50 µl of the reconstituted luciferin detection reagent containing the esterase was added to the samples, positive and solvent control wells. This step was followed by 20 minutes incubation in the dark for signal stabilization. In the wells reserved for background luminescence, luciferase-free water was added. Measurements were performed on a Tecan infinite F200 PRO plate reader on two independent days (n = 2) at minimum.
(§1) Raw data obtained from Tecan infinite F200 PRO plate reader was processed by calculating total luminescence (% of untreated control) by applying the formula: raw data − (background luminescence) * 100/mean of negative control.
A one-way ANOVA followed by Dunnett’s multiple comparisons test was performed. […] A p-value of < 0.05 was used to indicate significance.

CYP2D6 [2] = target: CYP2D6 (Homo sapiens, UniProt P10635); assay: P450-Glo CYP2D6 inhibition assay (bioluminescence-based; pre-screen at 100 µM and IC50 determination); details: for classification of CYP2D6 inhibition (actives / weak actives / inactives): ranked by IC50, inactives from pre-screen at 100 µM
CYP2D6 (Homo sapiens, UniProt P10635), sequence (P10635 whole entry): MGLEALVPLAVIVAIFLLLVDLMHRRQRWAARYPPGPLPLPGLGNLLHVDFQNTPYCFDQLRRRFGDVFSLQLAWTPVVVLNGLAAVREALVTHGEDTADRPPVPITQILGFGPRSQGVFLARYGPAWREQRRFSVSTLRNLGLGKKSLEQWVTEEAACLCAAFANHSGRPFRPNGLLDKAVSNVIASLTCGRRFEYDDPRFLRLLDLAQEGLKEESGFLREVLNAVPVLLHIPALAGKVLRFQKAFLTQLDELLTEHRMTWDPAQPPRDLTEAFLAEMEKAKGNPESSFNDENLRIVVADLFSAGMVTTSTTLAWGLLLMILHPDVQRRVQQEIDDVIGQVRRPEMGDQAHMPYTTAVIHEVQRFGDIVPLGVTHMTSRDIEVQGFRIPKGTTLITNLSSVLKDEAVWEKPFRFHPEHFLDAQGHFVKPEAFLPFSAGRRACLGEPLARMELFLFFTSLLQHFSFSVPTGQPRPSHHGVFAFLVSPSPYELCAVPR
Experimental: Their CYP2D6 inhibitory potential was determined at a concentration of 100 µM in a final reaction volume of 50 µl. […] All compounds were dissolved in DMSO and the concentration thereof in the final reaction volume was 1%, according to the limitations indicated in the manufacturer’s protocol. […] To take into account the background luminescence, which may derive from a non-enzymatic conversion of ME-luciferin-EGE to luciferin, we included a ‘minus P450’ control that contained no CYP2D6 enzyme. In order to quantify CYP2D6 activity, we subtracted background values prior to calculating the percentage of total luminescence (% TL) obtained from the solvent control (set to 100%). Low % TL indicates low CYP2D6 activity.
In the three minus P450 control wells, 12.25 µl of the 4× reaction mixture was added. […] The plate was incubated for 10 minutes. The CYP2D6 enzyme reaction was initiated by the addition of 25 µl of 2× NADPH regeneration system (2.6 mM NADP^+, 6.6 mM glucose-6-phosphate, 6.6 mM MgCl2 and 0.8 U/ml glucose-6-phosphate dehydrogenase buffered in 0.1 mM sodium citrate at pH 5.5; Promega). After 45 minutes incubation, the enzyme reaction was stopped by the addition of 50 µl of the luciferin detection reagent, which contained also the esterase for the generation of the luminescence signal. The plate was incubated in the dark for 20 minutes in order to stabilize the signal measured by a Tecan infinite F200 PRO plate reader. […] The maximum allowed DMSO concentration in the final reaction mix was 1% according to the manufacturer’s protocol. The experiment was performed at room temperature and under prevention of excessive UV-light at minimum on two independent days (n = 2).
Concentration-dependent CYP2D6 inhibition assays were performed by preparing a 5-step dilution series of the 400 µM compound solutions. […] After this dilution step, 12.5 µl of each dilution was transferred to the assay plate. The assay was performed as described above. The DMSO concentration was kept constant for all concentrations with a maximum of 1%. The experiments were performed on three independent experimental days (n = 3).
as §1

CYP2D6 [3] = assay: CYP2D6 inhibition of virtual hits already reported in the literature
Excerpt: the hits according to non-available CYP2D6 inhibition data, plant origin and availability. The

CYP2D6 [4] = details: Supplementary Table S2, supplementary reference list, cited from earlier work; for IC50: read-out: Inhibitory potency IC50
[5] = authors' classification of the literature value, Supplementary Table S2
[6] = IC50, P450-Glo CYP2D6 Inhibition Assay, recombinant human CYP2D6, 6 concentrations (compound 18: 4), n = 3

SMILES	P450-Glo Detection Reaction MEAN Diff. (inhibition of the detection reaction) [1] [%]	P450-Glo Detection Reaction MEAN (total luminescence) [1] [% TL]	p < 0.05 (significant inhibition of the P450-Glo detection reaction) [1]	IC50 (CYP2D6 [2]) [µM]	classification of CYP2D6 inhibition (actives / weak actives / inactives) (CYP2D6 [2])	also measured
CCC1=CC2CN3CCc4c([nH]c5ccccc45)C(C(=O)OC)(C2)C13 (single isomer, unassigned; (+)) [Compound 7, (+)-Catharanthine]	6.41	93.59	Yes	0.582	actives (those compounds were classified as active, which exhibited CYP2D6 IC50 values up to 10 µM)	
CC=C1C2CCN3CCC4(C(=C2C(=O)OC)Nc2ccccc24)C13 (single isomer, unassigned; (+)) [Compound 17, (+)-Condylocarpine]	7.34	92.66	Yes	8.16	actives (those compounds were classified as active, which exhibited CYP2D6 IC50 values up to 10 µM)	
COc1ccc(CC2c3cc(O)c(OC)cc3CCN2C)cc1O (single isomer, unassigned; (+)) [Compound 19, (+)-Reticuline]	1.06	98.94	No	0.0547	actives (those compounds were classified as active, which exhibited CYP2D6 IC50 values up to 10 µM)	
COC(=O)C1CC23C=CCN4CCC5(c6ccccc6NC15CC2)C43 (single isomer, unassigned; (-)) [Compound 10, (-)-Venalstonine]	3.66	96.34	No			
COC(=O)N1c2ccccc2C23C4CN5CCCC6(CCC12C(O)(C6)C4=O)C53 (single isomer, unassigned; (-)) [Compound 16, (-)-Kopsine]	10.30	89.70	Yes			
COC(=O)C1=CO[C@@H](C)[C@H]2CN3CCc4c([nH]c5ccccc45)[C@@H]3C[C@H]12 [Ajmalicine]						Classification of literature CYP2D6 inhibition (CYP2D6 [3]; [5]): active; IC50 (CYP2D6 [4]): 0.0023 µM
C=C[C@H]1CN2CC[C@H]1C[C@H]2[C@H](O)c1ccnc2ccccc12 [Cinchonidine]						Classification of literature CYP2D6 inhibition (CYP2D6 [3]; [5]): active; IC50 (CYP2D6 [4]): 10 µM
COC(=O)C1=CO[C@@H](C)[C@@H]2CN3CC[C@]4(C(=O)Nc5ccccc54)[C@@H]3C[C@H]12 [Compound 1, Pteropodine]	7.50	92.50	Yes	33.8	weak actives	
COc1ccc2c(c1OC)CN1CCc3cc4c(cc3C1C2C)OCO4 (stereo not drawn) [Compound 3, Thalictrivacine]	8.23	91.77	Yes		actives (those compounds were classified as active, which exhibited CYP2D6 IC50 values up to 10 µM)	IC50 (CYP2D6 [2]; [6]): 5.14 µM
O=C(NCCCCNCCCNC(=O)c1ccc(O)c(O)c1)c1ccc(O)c(O)c1 [Compound 4, Pistillarin]	13.61	86.39	Yes			
O=C(O)c1ccccc1-n1ccc2c([nH]c3ccccc32)c1=O [Compound 5, Secofascaplysic acid]	20.46	79.54	Yes	50.4	weak actives	
COC(=O)C1C(O)CCC2C[N+]3(C)CCc4c([nH]c5cccc(OC)c45)C3CC21 (stereo not drawn) [Compound 8, Venenatine methiodide]	9.14	90.86	Yes	4.6	actives (those compounds were classified as active, which exhibited CYP2D6 IC50 values up to 10 µM)	
COc1ccc(C[C@@H]2NCCc3cc(OC)c(O)cc32)cc1O [Compound 9, (S)-Norreticuline]	7.64	92.36	Yes		actives (those compounds were classified as active, which exhibited CYP2D6 IC50 values up to 10 µM)	IC50 at 45 min (CYP2D6 [2]; human, recombinant human CYP2D6 baculosomes, pH 7.4, probe ME-luciferin-EGE): 0.0636 µM
COc1ccc(C[C@H]2c3cc(OC)c(OC)cc3CCN2C)cc1O [Compound 11, (+)-Laudanidine]	5.86	94.14	Yes	0.38	actives (those compounds were classified as active, which exhibited CYP2D6 IC50 values up to 10 µM)	
COc1cc2c(cc1OC)C1Cc3cc(O)c(O)cc3CN1CC2 (stereo not drawn) [Compound 14, Spinosine]	4.73	95.27	Yes	0.117	actives (those compounds were classified as active, which exhibited CYP2D6 IC50 values up to 10 µM)	
COc1ccc(/C=C\c2cc(OC)c(OC)cc2CCN(C)C)cc1 [Compound 15, Des-N,O-dimethylarmepavine]	6.23	93.77	Yes	0.198	actives (those compounds were classified as active, which exhibited CYP2D6 IC50 values up to 10 µM)	
COc1cc2c(cc1O)-c1c(O)c(OC)cc3c1[C@H](C2)N(C)CC3 [Compound 18, Bracteoline]	12.30	87.70	Yes	2.11	actives (those compounds were classified as active, which exhibited CYP2D6 IC50 values up to 10 µM)	
COC1=C[C@]23CCN(C)[C@H](Cc4ccc(OC)c(O)c42)C3=CC1=O [Compound 20, (+)-Salutaridine]	2.94	97.06	No	24	weak actives	
CC[C@]12C=CCN3CC[C@]4(C(=C(C(=O)OC)C1)Nc1ccccc14)[C@@H]32 [Compound 22, Tabersonine]		104.20	Yes		actives (those compounds were classified as active, which exhibited CYP2D6 IC50 values up to 10 µM)	IC50 (CYP2D6 [2]; [6]): 0.419 µM
COC(=O)C1=CO[C@@H](C)[C@H]2CN3CC[C@@]4(C(=O)Nc5ccccc54)[C@@H]3C[C@H]12 [Compound 23, Isomitraphylline]	0.59	99.41	No			
COc1cc2c(cc1OC)[C@H]1[C@@H](C)c3ccc(OC)c(OC)c3CN1CC2 [Corydaline]						Classification of literature CYP2D6 inhibition (CYP2D6 [3]; [5]): weak; Classification of literature CYP2D6 inhibition (CYP2D6 [3]; w/o preincubation, authors' classification of the literature value, Supplementary Table S2): inactive; IC50 (CYP2D6 [4]; w/ preincubation): 64.5 ± 9.8 µM; IC50 (CYP2D6 [4]; w/o preincubation): 116 ± 7.6 µM
COc1cc2c(cc1O)CCN1Cc3c(ccc(OC)c3OC)C[C@H]21 [Corypalmine]						Classification of literature CYP2D6 inhibition (CYP2D6 [3]; [5]): active; IC50 (CYP2D6 [4]): 1 to 10 µM
COc1cc2c(cc1OC)C(=O)Cc1ccc3c(c1CN(C)CC2)OCO3 [Cryptopine]						Classification of literature CYP2D6 inhibition (CYP2D6 [3]; [5]): unclear; Inhibitory potency (CYP2D6 [4]): stated as inhibitor
COc1ccc(CC2c3cc(OC)c(OC)cc3CCN2C)cc1OC (stereo not drawn) [Laudanosine]						Classification of literature CYP2D6 inhibition (CYP2D6 [3]; [5]): unclear; Inhibitory potency (CYP2D6 [4]): stated as inhibitor
COc1ccc2c(c1OC)C(=O)O[C@@H]2[C@H]1c2c(cc3c(c2OC)OCO3)CCN1C [Noscapine]						Classification of literature CYP2D6 inhibition (CYP2D6 [3]; [5]): inactive; Inhibitory potency (IC50/Ki not specified) (CYP2D6 [4]): > 100 µM
COc1cc2c(cc1OC)-c1cc3ccc(OC)c(OC)c3c[n+]1CC2 [Palmatine chloride]						Classification of literature CYP2D6 inhibition (CYP2D6 [3]): weak; Inhibitory potency (IC50/Ki not specified) (CYP2D6 [4]): 92.6 µM
CN1CCc2cc3c(cc2C(=O)Cc2ccc4c(c2C1)OCO4)OCO3 [Protopine]						Classification of literature CYP2D6 inhibition (CYP2D6 [3]): active; Ki (CYP2D6 [4]; read-out: Inhibitory potency Ki): 0.078 µM
